We go through three compounds from patent US20090215717A1, “Sulfated oligosaccharides” (Ivax Drug Research Institute Ltd., priority 2004, published 2009).

Structures are written as SMILES. Where a name gives a salt, the structure may show the parent alone. Read-outs that look alike come from different tables or passages of the source.

For orientation: IC50 means the midpoint of a concentration-inhibition curve.

Test [1] relates to Brown Norway (BN) rats. Nature of the test: Tracheal contraction to acetylcholine ex vivo after antigen challenge of ovalbumin-sensitized BN rats (Model 1). The test is classed as in vivo, rat. As to conditions: for MAX: contraction at maximal Ach concentration relative to control (mean ± SEM): placebo 220 ± 30, control 100 ± 0; for ED50: log M acetylcholine (Ach), causing 50% contraction relative to control (mean ± SEM): trachea 48 h post challenge, placebo 6.10 ± 0.30, control 5.16 ± 0.08. Here is the method:
Examination of the effect of locally administered sulfated oligosaccharides on airways' hyper-responsiveness ex vivo.
Brown Norway (BN) rats were actively sensitized to ovalbumin (OA) by a subcutaneous injection of 0.5 ml of OA/Al(OH)3 gel mixture (2 mg OA+10 g Al(OH)3/100 ml saline) on day 1 with subsequent subcutaneous injections (10 mg OA+10 g Al(OH)3/100 ml saline) given on days 14 and 21. On day 28, animals received the compound of formula (IIA) intratracheally (0.01 or 1.0 mg/kg dose) 2 hours before antigen challenge. Antigen challenge was performed by inhalation of nebulised ovalbumin (1% antigen solution administered in a TSE inhalation system for 1 hour). Animals were sacrificed 48 hours post antigen challenge wherein the tracheas were removed to an organ bath. Dissected tracheas were allowed to equilibrate for 30 minutes before measuring tracheal spasmogenic response curves to acetylcholine (Ach).
As shown in Table 1 ovalbumin challenge of sensitized animals in this model caused a significant tracheal hyper-reactivity to acetylcholine, when the response to the spasmogenic agent was determined 48 h after antigen challenge.

The test system of test [2] is BN rats. Nature of the test: Allergen stimulated mucus production of airways epithelial cells, PAS(+) cell count (Model 2). As to conditions: for number of PAS(+) cells as percent of total number of cells (average ± SEM): lungs 48 h after challenge, challenge 27.6 ± 3.5, control 2.9 ± 0.9. In kind it is in vivo, rat. Here is the method:
Sensitized BN rats were treated intratracheally with 0.01 or 1.0 mg/kg dose of compound of formula (IIA), two hours before antigenic challenge, using a similar protocol described in Model 1. Lungs were collected 48 hours after challenge and were fixed in 8% phophospate buffered formaldehyde. Samples were then processed for histochemistry routinely. 5 μm thick sections were stained with periodic-acid-Schiff (PAS) reagents and were counterstained with haematoxylin-eosine. On the sections each epithelial cells of the airways were counted in the whole preparation at a magnification of 400×. The number of PAS(+) [mucus producing] epithelial cells was expressed as the ratio of the […] of epithelial cells.
As it is shown in Table 2, allergen challenge stimulates the mucus production of airways epithelial cells (control vs. challenge).

For test [3], the system named is BN rats. Nature of the test: Perivascular oedema in asthmatic lung tissue (Model 3). In kind it is in vivo, rat. As to conditions: for Oedema: area of oedema relative to area of vasculature (average ± SEM): lungs 48 h after challenge, challenge 224 ± 17, control 71 ± 7. The protocol: Sensitized BN rats were treated intratracheally with 0.01 and 1.0 mg/kg dose of compound of formula (IIA), two hours before antigenic challenge, using a similar protocol described in Model 1. Lungs were collected 48 hours after challenge and were fixed in 8% phosphate buffered formaldehyde. Samples were then processed for histochemistry routinely. […] thick sections were stained with periodic-acid-Schiff (PAS) reagents and were counterstained with haematoxylin-eosine. On the sections the areas of the connective tissue around the vasculare were determined and expressed as a ratio of the area of the corresponding blood vessel itself.

For test [4], the system named is BN rats. Nature of the test: Eosinophilia in bronchoalveolar lavage fluid (Model 4). In kind it is in vivo, rat. As to conditions: for Eosinophil: eosinophil number/ml BALF (average ± SEM): BALF 48 h after challenge, challenge 1.00 ± 0.16, control 0.35 ± 0.04. The protocol:
Sensitized BN rats were treated intratracheally with 0.01 and 1.0 mg/kg dose of compound of formula (IIA); two hours before antigenic challenge, using a similar protocol described in Model 1. Bronchoalveolar lavage fluids (BALF) were collected 48 hours after challenge and after staining, the number of eosinophils were determined.
As it is shown in Table 4, allergen challenge causes an increase in the number of eosinophils in the bronchioalveolar lavage.

For test [5], the target named is T1, IP-3 receptor (Rattus norvegicus, UniProt P29994).
T1 construct: rat cerebellum membrane preparations; from tissue; host or cells: rat cerebellum (microsomal membrane preparation)
T1 sequence (P29994 whole entry): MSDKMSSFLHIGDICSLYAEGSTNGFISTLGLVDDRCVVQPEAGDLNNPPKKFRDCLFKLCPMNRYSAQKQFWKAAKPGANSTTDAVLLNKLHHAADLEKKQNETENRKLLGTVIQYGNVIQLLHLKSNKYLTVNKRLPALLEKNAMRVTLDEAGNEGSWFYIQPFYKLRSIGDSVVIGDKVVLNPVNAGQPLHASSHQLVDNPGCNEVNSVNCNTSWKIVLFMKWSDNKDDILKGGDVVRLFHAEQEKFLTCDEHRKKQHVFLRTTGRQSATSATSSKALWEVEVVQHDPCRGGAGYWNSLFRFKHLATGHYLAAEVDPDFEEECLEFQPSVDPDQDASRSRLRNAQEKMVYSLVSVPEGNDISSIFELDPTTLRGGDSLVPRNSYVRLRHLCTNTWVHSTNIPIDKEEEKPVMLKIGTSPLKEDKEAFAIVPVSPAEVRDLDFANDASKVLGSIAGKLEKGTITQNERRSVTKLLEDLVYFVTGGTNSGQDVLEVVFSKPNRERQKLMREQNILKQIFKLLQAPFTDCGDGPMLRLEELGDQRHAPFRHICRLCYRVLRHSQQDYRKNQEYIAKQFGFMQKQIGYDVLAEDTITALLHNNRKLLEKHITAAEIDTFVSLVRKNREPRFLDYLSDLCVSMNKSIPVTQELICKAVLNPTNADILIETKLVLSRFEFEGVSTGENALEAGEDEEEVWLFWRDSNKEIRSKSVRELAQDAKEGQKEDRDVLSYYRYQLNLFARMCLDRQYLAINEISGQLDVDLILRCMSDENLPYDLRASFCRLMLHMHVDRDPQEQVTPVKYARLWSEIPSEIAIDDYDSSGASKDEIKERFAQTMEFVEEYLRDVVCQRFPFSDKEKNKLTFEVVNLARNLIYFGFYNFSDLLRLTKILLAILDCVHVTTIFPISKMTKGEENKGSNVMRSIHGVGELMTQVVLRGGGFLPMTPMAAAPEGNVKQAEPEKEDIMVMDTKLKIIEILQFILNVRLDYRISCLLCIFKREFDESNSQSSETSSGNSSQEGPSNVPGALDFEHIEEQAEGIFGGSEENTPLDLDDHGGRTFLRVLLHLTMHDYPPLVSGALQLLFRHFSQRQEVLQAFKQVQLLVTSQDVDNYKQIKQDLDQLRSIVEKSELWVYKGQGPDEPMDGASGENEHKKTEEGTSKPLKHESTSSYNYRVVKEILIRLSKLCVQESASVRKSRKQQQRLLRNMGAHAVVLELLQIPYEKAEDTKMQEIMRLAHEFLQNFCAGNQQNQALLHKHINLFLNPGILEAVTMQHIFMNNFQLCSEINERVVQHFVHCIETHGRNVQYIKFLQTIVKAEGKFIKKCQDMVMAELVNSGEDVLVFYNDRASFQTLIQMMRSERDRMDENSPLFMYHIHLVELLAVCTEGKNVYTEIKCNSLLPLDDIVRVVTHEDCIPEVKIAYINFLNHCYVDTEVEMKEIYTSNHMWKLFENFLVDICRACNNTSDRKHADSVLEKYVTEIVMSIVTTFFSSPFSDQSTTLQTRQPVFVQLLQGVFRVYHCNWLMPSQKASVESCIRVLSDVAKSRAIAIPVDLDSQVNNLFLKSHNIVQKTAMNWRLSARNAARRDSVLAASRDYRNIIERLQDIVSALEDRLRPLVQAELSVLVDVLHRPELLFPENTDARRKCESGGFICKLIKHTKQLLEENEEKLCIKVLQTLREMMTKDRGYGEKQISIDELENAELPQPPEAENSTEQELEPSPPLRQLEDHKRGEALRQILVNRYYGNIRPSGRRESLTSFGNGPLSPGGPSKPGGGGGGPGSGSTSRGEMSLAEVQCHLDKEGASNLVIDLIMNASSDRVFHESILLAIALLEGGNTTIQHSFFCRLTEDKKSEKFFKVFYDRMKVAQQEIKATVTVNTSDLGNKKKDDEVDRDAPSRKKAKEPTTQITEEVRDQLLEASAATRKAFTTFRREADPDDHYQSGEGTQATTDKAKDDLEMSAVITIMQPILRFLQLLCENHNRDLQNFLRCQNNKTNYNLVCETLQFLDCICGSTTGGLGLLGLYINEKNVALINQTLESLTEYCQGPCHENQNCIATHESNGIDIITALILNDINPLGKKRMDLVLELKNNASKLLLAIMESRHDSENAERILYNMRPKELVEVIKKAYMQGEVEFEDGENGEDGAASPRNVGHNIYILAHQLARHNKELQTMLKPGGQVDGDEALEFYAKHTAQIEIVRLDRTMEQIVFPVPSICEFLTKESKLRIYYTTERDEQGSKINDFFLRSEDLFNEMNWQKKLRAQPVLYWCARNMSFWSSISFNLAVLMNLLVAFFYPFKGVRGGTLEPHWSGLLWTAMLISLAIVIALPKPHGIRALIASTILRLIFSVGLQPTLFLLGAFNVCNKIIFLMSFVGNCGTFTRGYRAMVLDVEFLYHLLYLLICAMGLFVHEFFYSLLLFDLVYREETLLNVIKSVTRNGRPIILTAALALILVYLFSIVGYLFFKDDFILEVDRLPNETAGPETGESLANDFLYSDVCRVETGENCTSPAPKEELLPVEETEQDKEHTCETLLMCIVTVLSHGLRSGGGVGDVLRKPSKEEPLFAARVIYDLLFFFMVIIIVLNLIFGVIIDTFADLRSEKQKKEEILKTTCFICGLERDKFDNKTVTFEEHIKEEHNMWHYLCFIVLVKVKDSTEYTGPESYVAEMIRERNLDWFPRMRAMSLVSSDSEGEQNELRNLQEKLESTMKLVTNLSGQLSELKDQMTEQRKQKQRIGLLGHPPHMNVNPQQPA
Nature of the test: IP-3 receptor antagonistic effect, rat cerebellum membrane preparations (Model 5). As to conditions: for IC50 Average ± SEM (n) / IC50: inhibition of IP-3 binding. In kind it is binding. The protocol: The sulfated oligosaccharides of the present invention, depending on their chemical structure, inhibit the binding of inositol-1,4,5-trisphophate […] to its receptor in microsomal membrane preparations. As IP-3 is a messenger molecule playing distinguished role in the activation of different cells, interfering with this function can explain the anti-asthmatic effect of these sulfated oligosaccharides.
The IP-3 antagonist effect of the sulfated oligosaccharides was determined using rat cerebellum membrane preparations according to Worley et al. (JBC 262, 12132, 1987).

Setting [6] is: 0.01 mg/kg intratracheally 2 h before antigen challenge.
Where [7] appears, read: 1.0 mg/kg intratracheally 2 h before antigen challenge.
The mark [8] stands for this setting: 0.01 mg/kg intratracheally 2 h before challenge.
Setting [9] is: 1.0 mg/kg intratracheally 2 h before challenge.
Where [10] appears, read: higher dose (1.0 mg/kg intratracheally).

As for `O=S(=O)([O-])OC[C@H]1O[C@@](COS(=O)(=O)[O-])(O[C@H]2O[C@H](COS(=O)(=O)[O-])[C@@H](OS(=O)(=O)[O-])[C@H](OS(=O)(=O)[O-])[C@H]2OS(=O)(=O)[O-])[C@@H](OS(=O)(=O)[O-])[C@@H]1OS(=O)(=O)[O-].[Na+].[Na+].[Na+].[Na+].[Na+].[Na+].[Na+].[Na+]` [IIA, sucrose octasulfate octa sodium salt], the “MAX: contraction at maximal Ach concentration relative to control (mean ± SEM)” value in test [1] (setting [6]) worked out at 167 ± 36; in test [1] (setting [7]), 131 ± 22. Besides, the “ED50: log M acetylcholine (Ach), causing 50% contraction relative to control (mean ± SEM)” value in test [1] (setting [6]) was 4.73 ± 0.50 log M; in test [1] (setting [7]), 4.98 ± 0.30 log M. Besides, the “effect on tracheal hyper-reactivity to acetylcholine (in words)” value in test [1] (both applied doses (0.01 and 1.0 mg/kg intratracheally)) is given as “notably decreased this elevation”. Also, the “effect on number of PAS(+), mucus producing cells (in words)” value in test [2] (0.01 mg/kg intratracheally) is recorded as “notably”; in test [2] (setting [10]) it was “statistically significantly decreased”. In addition, the “number of PAS(+) cells as percent of total number of cells (average ± SEM)” value came out at 19.2 ± 2.7% in test [2] (setting [8]) and 7.3 ± 1.4% in test [2] (setting [9]). The figures for the “Oedema: area of oedema relative to area of vasculature (average ± SEM)” value in test [3] (setting [8]) and in test [3] (setting [9]) were 177 ± 10 and 119 ± 7, respectively. In test [3] (setting [10]), the “effect on extent of oedema around the vasculature (in words)” value is “significantly decreased”. Also, the “Eosinophil: eosinophil number/ml BALF (average ± SEM)” value was found to be 0.89 ± 0.13 eosinophil number/ml BALF in test [4] (setting [8]) and 0.70 ± 0.08 eosinophil number/ml BALF in test [4] (setting [9]). Besides, the entries for the “effect on number of eosinophils in the bronchioalveolar lavage (in words)” value in test [4] (higher doses (1.0 mg/kg intratracheally)) and in test [4] (smallest dose (0.01 mg/kg intratracheally)) were “the decrease become statistically significant” and “decreases the extent of it”, respectively. Besides, the “IP-3 antagonist activity (in words)” value in test [5] is “significant IP-3 antagonist activity”. For the same compound, in test [5], the “IC50 Average ± SEM (n)” value is listed as 0.26 ± 0.05 (4) μg/ml. The IC50 in test [5] (read-out: Average IC50) amounted to 208 nM.
For `O=S(=O)(O)OC[C@H]1O[C@H](O[C@H]2O[C@H](COS(=O)(=O)O)[C@@H](OS(=O)(=O)O)[C@H](OS(=O)(=O)O)[C@H]2OS(=O)(=O)O)[C@H](OS(=O)(=O)O)[C@@H](OS(=O)(=O)O)[C@@H]1OS(=O)(=O)O` [IIB, trehalose octasulfate octa potassium salt], the values for the half-maximal inhibitory concentration (IC50) in test [5] (read-out: Average IC50) and in test [5] (read-out: IC50 Average ± SEM (n) (converted)) were 194 nM and 244 nM, respectively.
On to `O=S(=O)([O-])OC[C@H]1O[C@H](OC[C@H]2O[C@H](O[C@]3(COS(=O)(=O)[O-])O[C@H](COS(=O)(=O)[O-])[C@@H](OS(=O)(=O)[O-])[C@@H]3OS(=O)(=O)[O-])[C@H](OS(=O)(=O)[O-])[C@@H](OS(=O)(=O)[O-])[C@@H]2OS(=O)(=O)[O-])[C@H](OS(=O)(=O)[O-])[C@@H](OS(=O)(=O)[O-])[C@H]1OS(=O)(=O)[O-].[K+].[K+].[K+].[K+].[K+].[K+].[K+].[K+].[K+].[K+].[K+]` [IIC, raffinose undecasulfate undeca potassium salt], for which, in test [5], the “IP-3 antagonist activity (in words)” value is “significant IP-3 antagonist activity” and the “IC50 Average ± SEM (n)” value is recorded as 0.43 ± 0.05 (3) μg/ml. Further, in test [5] (read-out: Average IC50), the IC50 was 238 nM.
